Measured values as given in patent US12507721B2, “Ready-to-use parenteral nutrition formulation” (BAXTER INTERNATIONAL INC., priority 2021, dated 2025).
One block for each molecule: values may come before it.

Assays:
[1] = Studies of vitamin B12 in lipid emulsions irrespective of oil source, pH or stabilizing agent; assay type: physicochemical
Procedure: (storage for 3 months at 40° C.), even though hydroxocobalamin seems to remain relatively stable for about 6 months at 40° C.

[2] = Storage of Glucose Batch 1 at 40° C./25% RH for 6 months; assay type: physicochemical; conditions: sterilization cycles of Example 7
Procedure: In a next step, the stability of vitamin B12 was examined in Glucose Batch 1 which seemed to be the most promising based on the results shown in Table 7. Accordingly, several bags were stored at 40° C./25% RH for 6 months (T6M). Batch Glucose 1 was analyzed at T6M to revisit the presence of vitamin B12 in either its cyanocobalamin or hydroxocobalamin form. In order to test the validity of the test, vitamins B1, B3 and B6 were tested together with vitamin B12 both after sterilization and then throughout shelf life.

[3] = Vitamin stability in 35% glucose solution during sterilization and storage; assay type: physicochemical; conditions: for Unsterilized T0 concentration / T1M40° C. concentration / T3M40° C. concentration / Cycle 3 T0 concentration / T6M40° C. concentration / Cycle 4 T0 concentration: 35% glucose solution; for T1M40° C. concentration: 1 month at 40° C.; for T3M40° C. concentration: 3 months at 40° C.; for Cycle 3 T0 concentration: C0 = 25 minutes; for Cycle 3 T0 concentration / Cycle 4 T0 concentration: after sterilization; for T6M40° C. concentration: 6 months at 40° C., B12 value (*) is the sum of cyanocobalamin and hydroxocobalamin; for Cycle 4 T0 concentration: C0 = 19 minutes
Procedure: For testing the stability of vitamin B12 in formulation as they are typically used in parenteral nutrition, a 35% glucose solution, a 14.2% amino acid formulation such as found, for example, in Olimel N9E (Baxter), and a 20% lipid emulsion such as found in Clinoleic 20% (Baxter) were supplemented with different vitamin combinations which always included vitamin B12. KCl was added into the glucose solution to understand if it has an effect on the stability of vitamin B12. Vitamin B1 was introduced as thiamin HCl. Ascorbyl palmitate was added to the lipid emulsion formulation as a stabilizing agent due to its antioxidant properties. In addition, two separate micellar solutions (“Vit A” and “Vit B”, see Table 9) comprising certain vitamins to be assessed with regard to degradation (B3, B6, B8, B9, B12, C) but formulated with different excipients as micellization agents were tested for vitamin B12 stability. Vit A consisted of a solution of mixed micelles with ascorbyl palmitate as a potential stability enhancer. Vit B was formulated with a mix of polysorbates, PEG and sorbitol to form micelles. The micellar solutions were prepared by mixing, under high speed, a solution composed of glycocholic acid and lecithins dissolved in water. In case of Vit B, the glycocholic acid and lecithin were replaced by PEG and polysorbate. All formulations were provided in standard flexible containers and overpouched with an aluminum overpouch for subsequent sterilization. For an overview over formulations and conditions see Table 9.
All samples were submitted to two different sterilization technologies. Steam sterilization targeting a F0=8 min was used for large volumes (400/800 ml, Cycle 2) and for small volumes (25/50 ml, Cycle 1) as lined out in Table 9 above. The same samples were sterilized by water spray sterilization with a serial tower continuous sterilization equipment with two different exposure times (Cycles 3 (25 min.) and 4 (19 min.)).
The vitamin recovery was then compared between the different sterilization cycles and formulations to understand the impact of the formulation and the sterilization technology used on their respective short- and long-term stability. Therefore, after sterilization, the samples were stored at 40° C./25% RH for 6 months to evaluate the recovery of vitamin B12 at T1M, T3M and T6M. Besides, backup samples were stored at 5° C. Finally, some samples were also stored at 25° C./40% RH to provide for real time stability data.

[4] = Selenium stability in trace element solutions with selenate, selenomethionine or selenite; conditions: for selenium concentration during storage: TE formulation pH 2.2, heat sterilized, conditions not optimized for DO, FIGS. 9-11
Procedure: (§1) Timepoint 0 corresponds to the results of TE dosage right after sterilization. […] Timepoints 1, 3 and 6 correspond to the results of TE dosage after 1 month, 3 months and 6 months storage at 40° C./25% RH.
as §1, §1
For the three tested solutions containing different forms of selenium, the selenium is mixed with other TE (Zn, Cu, Mn, F, I, Mo, Cr, Fe), which were introduced as chloride salts. The solutions were acidified to pH 2.2 using malic acid and underwent terminal heat sterilization prior to storage.

[5] = Impact of DO on selenium stability; mix of 9 trace elements; assay type: physicochemical; conditions: sterilized samples stored at 40° C., FIG. 5
Procedure: The impact of oxygen seems of major importance in the stability of selenite containing trace element formulations. […] To confirm this hypothesis, a regression test was performed between Se assay results and log(dissolved oxygen results). Only sterilized samples stored at 40° C. were considered as the sterilization and storage at high temperature seem to both increase the Se degradation.
The presence of oxygen promotes selenite stability. To ensure that it is not deleterious to another TE the stability of a mix of the 9 TE of interest (i.e. Zn, Cu, Cr, Mo, Mn, Fe, I, F & Se) was evaluated at pH 2.2 with 200 mM of malic acid (to ensure iodide stability) and stored in a glass bottle (so containing about 3 ppm of dissolved oxygen). The solution was heat sterilized and stored 6 months at 40° C. or 5° C. (T6M 40° C. and T6M 5° C., respectively).

[6] = pediatric PN formulation stored at 25° C.; cited from earlier work
[7] = 25 ml, Cycle 1 steam sterilization
[8] = 800 ml, Cycle 2 steam sterilization
[9] = 800 ml, Cycle 3 water spray sterilization
[10] = 800 ml, Cycle 4 water spray sterilization

Molecule: C/C1=C2/[N-][C@H]([C@H](CC(N)=O)[C@@]2(C)CCC(=O)NC[C@@H](C)OP(=O)([O-])O[C@H]2[C@@H](O)[C@@H](n3cnc4cc(C)c(C)cc43)O[C@@H]2CO)[C@]2(C)N=C(/C(C)=C3N=C(/C=C4N=C1[C@@H](CCC(N)=O)C\4(C)C)[C@@H](CCC(N)=O)[C@]\3(C)CC(N)=O)[C@@H](CCC(N)=O)[C@]2(C)CC(N)=O.[Co+3].[OH-] [B12 HC, hydroxocobalamin]
time remaining relatively stable ([1]; at 40° C.): about 6 months

Molecule: O=[Se](=O)(O)O [Selenate, sodium selenate]
selenium concentration during storage [4]: remained stable

Molecule: O=[Se](O)O [selenite, sodium selenite]
oxygen amount sufficient to ensure stability in the trace element formulation [5]: around 0.5 ppm | stability after three months ([4]; TE solution pH 2.2 (malic acid), terminal heat sterilization, DO not strictly controlled, analysis stopped): lack of stability

Molecule: C[Se]CC[C@H](N)C(=O)O [selenomethionine]
selenium concentration during storage [4]: remained stable

Molecule: O=C1O[C@H]([C@@H](O)CO)C(O)=C1O [vitamin C, ascorbic acid]
time after which instability was presented [6]: 48 h

Molecule: cyanocobalamin [B12 CC]
detection of cyanocobalamin after 6 months ([3]; standard PN glucose solution, Cycles 1 and 2 (steam sterilization), FIG. 4): no cyanocobalamin can be detected | detection of cyanocobalamin ([1]; T3M40° C. (storage for 3 months at 40° C.)): no more cyanocobalamin can be detected

Second part, the molecule after the results:

degradation during sterilization [2]: no significant degradation
Molecule: Cc1ncc(C[n+]2csc(CCO)c2C)c(N)n1 [Batch B1, thiamine]

degradation during sterilization [2]: no significant degradation | Unsterilized T0 concentration ([3]; 25 ml (Table 10A)): 51.10 mg/L | T1M40° C. concentration [3, 7]: 49.30 mg/L | T3M40° C. concentration [3, 7]: 50.20 mg/L | Unsterilized T0 concentration ([3]; 800 ml (Table 10B)): 51.10 mg/L | Unsterilized T0 concentration ([3]; 800 ml (Table 11A)): 52.80 mg/L | Unsterilized T0 concentration ([3]; 800 ml (Table 11B)): 52.80 mg/L | T1M40° C. concentration [3, 8]: 50.60 mg/L | T3M40° C. concentration [3, 8]: 51.20 mg/L | Cycle 3 T0 concentration [3, 9]: 50.50 mg/L | T3M40° C. concentration [3, 9]: 50.30 mg/L | T6M40° C. concentration [3, 9]: 48.27 mg/L | Cycle 4 T0 concentration [3, 10]: 50.40 mg/L | T3M40° C. concentration [3, 10]: 51.00 mg/L | T6M40° C. concentration [3, 10]: 49.35 mg/L
Molecule: NC(=O)c1cccnc1 [Batch B3, Nicotinamide]

degradation during sterilization [2]: no significant degradation | Unsterilized T0 concentration ([3]; 25 ml (Table 10A)): 6.40 mg/L | T1M40° C. concentration [3, 7]: 6.40 mg/L | T3M40° C. concentration [3, 7]: 6.50 mg/L | Unsterilized T0 concentration ([3]; 800 ml (Table 10B)): 6.40 mg/L | Unsterilized T0 concentration ([3]; 800 ml (Table 11A)): 6.61 mg/L | Unsterilized T0 concentration ([3]; 800 ml (Table 11B)): 6.61 mg/L | T1M40° C. concentration [3, 8]: 5.93 mg/L | T3M40° C. concentration [3, 8]: 6.00 mg/L | Cycle 3 T0 concentration [3, 9]: 6.23 mg/L | T3M40° C. concentration [3, 9]: 6.10 mg/L | T6M40° C. concentration [3, 9]: 6.04 mg/L | Cycle 4 T0 concentration [3, 10]: 6.27 mg/L | T3M40° C. concentration [3, 10]: 5.90 mg/L | T6M40° C. concentration [3, 10]: 6.03 mg/L
Molecule: Cc1ncc(CO)c(CO)c1O [Batch B6, pyridoxine]
